Results reported in ChEMBL document CHEMBL5291721, “A preclinical secondary pharmacology resource illuminates target-adverse drug reaction associations of marketed drugs” (Nat Commun, 2023).

What was measured:
[1] = target: T1, Adenosine receptor A3 (Homo sapiens, UniProt P0DMS8)
T1 sequence (P0DMS8 whole entry): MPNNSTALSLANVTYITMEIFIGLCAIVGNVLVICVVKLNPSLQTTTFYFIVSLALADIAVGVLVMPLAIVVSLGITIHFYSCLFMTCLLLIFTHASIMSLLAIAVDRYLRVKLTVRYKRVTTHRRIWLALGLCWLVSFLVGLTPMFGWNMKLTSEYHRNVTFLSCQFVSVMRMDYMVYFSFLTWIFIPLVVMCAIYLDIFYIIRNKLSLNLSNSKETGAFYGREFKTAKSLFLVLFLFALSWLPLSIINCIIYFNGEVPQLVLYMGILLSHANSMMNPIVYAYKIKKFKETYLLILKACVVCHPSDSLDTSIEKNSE

[2] = target: T2, Alpha-2C adrenergic receptor (Homo sapiens, UniProt P18825); assay type: functional
T2 sequence (P18825 whole entry): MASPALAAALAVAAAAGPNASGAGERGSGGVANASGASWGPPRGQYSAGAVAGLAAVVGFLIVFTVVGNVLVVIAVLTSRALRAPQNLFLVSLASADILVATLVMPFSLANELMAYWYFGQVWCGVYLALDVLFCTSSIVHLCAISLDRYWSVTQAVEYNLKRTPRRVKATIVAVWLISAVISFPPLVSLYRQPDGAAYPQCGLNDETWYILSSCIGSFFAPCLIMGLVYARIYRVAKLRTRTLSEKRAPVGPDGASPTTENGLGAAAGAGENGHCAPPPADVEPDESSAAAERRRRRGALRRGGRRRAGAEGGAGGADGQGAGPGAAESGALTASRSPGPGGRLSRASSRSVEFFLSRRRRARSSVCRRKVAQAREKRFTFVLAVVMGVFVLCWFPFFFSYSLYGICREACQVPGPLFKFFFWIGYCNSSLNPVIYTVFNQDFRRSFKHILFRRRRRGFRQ

[3] = target: Voltage-dependent L-type calcium channel subunit alpha-1C (Rattus norvegicus, UniProt P22002); assay type: functional
Sequence of Voltage-dependent L-type calcium channel subunit alpha-1C (P22002 whole entry): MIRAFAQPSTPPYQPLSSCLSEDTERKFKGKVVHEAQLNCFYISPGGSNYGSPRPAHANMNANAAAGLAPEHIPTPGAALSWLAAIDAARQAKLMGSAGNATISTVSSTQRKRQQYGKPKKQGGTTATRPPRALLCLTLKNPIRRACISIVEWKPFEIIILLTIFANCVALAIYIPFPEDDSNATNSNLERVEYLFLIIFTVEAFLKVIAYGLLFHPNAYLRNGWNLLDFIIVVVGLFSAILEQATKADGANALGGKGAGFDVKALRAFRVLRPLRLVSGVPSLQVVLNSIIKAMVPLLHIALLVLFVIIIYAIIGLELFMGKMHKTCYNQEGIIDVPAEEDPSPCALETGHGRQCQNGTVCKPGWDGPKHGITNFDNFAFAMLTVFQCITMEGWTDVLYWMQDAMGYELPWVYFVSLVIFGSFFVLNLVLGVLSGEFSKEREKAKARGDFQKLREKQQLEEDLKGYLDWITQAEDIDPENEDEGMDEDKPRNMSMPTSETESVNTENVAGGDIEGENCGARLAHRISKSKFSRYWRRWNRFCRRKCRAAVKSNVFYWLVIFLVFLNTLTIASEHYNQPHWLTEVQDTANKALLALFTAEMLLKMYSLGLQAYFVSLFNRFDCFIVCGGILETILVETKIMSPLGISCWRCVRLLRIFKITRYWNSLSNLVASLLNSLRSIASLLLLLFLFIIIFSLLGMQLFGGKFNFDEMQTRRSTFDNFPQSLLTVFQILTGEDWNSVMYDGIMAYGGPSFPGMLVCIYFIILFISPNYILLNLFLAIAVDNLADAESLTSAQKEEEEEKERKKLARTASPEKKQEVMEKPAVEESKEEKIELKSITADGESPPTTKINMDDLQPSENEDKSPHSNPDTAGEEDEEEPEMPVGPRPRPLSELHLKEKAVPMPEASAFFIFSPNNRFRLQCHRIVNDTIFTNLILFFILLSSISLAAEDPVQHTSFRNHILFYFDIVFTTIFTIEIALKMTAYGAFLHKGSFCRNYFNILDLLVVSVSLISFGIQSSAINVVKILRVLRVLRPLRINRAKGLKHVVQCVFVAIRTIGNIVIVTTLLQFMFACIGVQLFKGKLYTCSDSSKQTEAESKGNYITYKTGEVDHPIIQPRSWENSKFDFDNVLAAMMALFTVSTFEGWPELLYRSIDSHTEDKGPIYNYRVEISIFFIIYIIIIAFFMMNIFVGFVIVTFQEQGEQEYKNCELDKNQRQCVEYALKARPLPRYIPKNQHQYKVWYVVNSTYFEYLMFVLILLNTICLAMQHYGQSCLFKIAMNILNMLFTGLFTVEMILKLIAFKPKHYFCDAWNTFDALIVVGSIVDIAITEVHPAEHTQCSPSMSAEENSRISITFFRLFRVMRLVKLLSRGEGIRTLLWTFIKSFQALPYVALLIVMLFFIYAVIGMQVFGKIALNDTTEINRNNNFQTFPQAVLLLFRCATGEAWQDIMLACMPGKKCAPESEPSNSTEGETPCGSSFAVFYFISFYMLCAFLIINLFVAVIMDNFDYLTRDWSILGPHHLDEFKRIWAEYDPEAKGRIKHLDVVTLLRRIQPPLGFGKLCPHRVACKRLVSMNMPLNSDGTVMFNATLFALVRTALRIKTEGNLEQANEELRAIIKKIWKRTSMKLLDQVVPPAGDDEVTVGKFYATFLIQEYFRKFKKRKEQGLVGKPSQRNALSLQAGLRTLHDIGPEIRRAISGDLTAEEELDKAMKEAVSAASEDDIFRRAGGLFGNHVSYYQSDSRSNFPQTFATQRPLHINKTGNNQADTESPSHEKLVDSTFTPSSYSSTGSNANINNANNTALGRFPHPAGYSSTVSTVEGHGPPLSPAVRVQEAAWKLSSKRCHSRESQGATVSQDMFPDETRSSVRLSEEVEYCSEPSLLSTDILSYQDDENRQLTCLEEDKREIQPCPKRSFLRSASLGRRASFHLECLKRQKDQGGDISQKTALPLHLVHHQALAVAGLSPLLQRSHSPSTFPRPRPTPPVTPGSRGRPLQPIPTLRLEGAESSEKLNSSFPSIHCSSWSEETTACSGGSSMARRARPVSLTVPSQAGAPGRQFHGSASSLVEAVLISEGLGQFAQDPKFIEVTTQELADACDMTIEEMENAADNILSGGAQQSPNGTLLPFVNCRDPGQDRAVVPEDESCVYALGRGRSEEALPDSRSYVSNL

[4] = target: T3, Gastrin/cholecystokinin type B receptor (Homo sapiens, UniProt P32239)
T3 sequence (P32239 whole entry): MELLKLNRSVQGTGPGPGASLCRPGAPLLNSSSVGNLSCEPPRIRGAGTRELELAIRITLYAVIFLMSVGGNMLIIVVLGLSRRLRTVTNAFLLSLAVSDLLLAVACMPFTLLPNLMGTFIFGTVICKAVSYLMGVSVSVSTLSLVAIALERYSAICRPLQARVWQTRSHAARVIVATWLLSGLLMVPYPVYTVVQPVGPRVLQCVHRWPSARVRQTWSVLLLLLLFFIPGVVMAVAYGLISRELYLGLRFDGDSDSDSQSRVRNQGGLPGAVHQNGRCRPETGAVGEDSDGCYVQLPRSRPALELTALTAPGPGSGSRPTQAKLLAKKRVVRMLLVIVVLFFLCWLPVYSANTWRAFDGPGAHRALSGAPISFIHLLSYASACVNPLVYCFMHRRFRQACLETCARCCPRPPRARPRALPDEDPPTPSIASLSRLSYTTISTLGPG

[5] = target: T4, Muscarinic acetylcholine receptor M2 (Homo sapiens, UniProt P08172); assay type: functional, cell-based
T4 sequence (P08172 whole entry): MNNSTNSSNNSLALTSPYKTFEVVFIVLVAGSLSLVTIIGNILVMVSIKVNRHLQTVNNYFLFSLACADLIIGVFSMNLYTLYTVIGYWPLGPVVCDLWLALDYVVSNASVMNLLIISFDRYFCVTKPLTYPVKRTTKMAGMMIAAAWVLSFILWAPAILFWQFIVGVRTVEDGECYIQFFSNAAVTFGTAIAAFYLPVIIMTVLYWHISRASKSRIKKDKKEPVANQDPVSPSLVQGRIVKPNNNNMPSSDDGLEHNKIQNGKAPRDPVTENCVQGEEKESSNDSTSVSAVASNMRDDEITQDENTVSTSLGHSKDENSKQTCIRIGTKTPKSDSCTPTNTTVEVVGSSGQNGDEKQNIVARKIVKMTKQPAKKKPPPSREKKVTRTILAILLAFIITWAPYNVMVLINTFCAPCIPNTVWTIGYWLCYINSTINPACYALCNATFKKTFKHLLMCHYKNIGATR
Further: assay procedure not described here.

Molecule | AC50 [1] [µM] | AC50 [2] [µM] | AC50 [3] [µM] | AC50 [4] [µM] | AC50 [5] [µM]
CCOC(=O)C1=C(C)NC(C)=C(C(=O)OC)C1c1cccc(Cl)c1Cl (centres undefined) [FELODIPINE] | 7.91 | > 10 | 0.0204 | > 30 | > 10
TEPRENONE | > 30 | > 10 | > 10 | > 30 | > 10
O=C(O)CCCC[C@@H]1SC[C@@H]2NC(=O)N[C@@H]21 [BIOTIN] | > 10 | > 10 | > 10 | – | > 10
N=C(N)NC(=O)Cc1c(Cl)cccc1Cl [GUANFACINE] | > 30 | – | > 30 | > 30 | > 30
CCC(=O)[C@@]1(C)[C@H](C)C[C@H]2[C@@H]3CCC4=CC(=O)C=C[C@]4(C)[C@H]3[C@@H](O)C[C@@]21C [RIMEXOLONE] | > 10 | > 10 | > 10 | – | > 10
CCN(CC)C(C)C(=O)c1ccccc1 (centres undefined) [DIETHYLPROPION] | > 30 | > 10 | > 10 | > 30 | > 10
Cc1ccc(-c2ncc(Cl)cc2-c2ccc(S(C)(=O)=O)cc2)cn1 [ETORICOXIB] | > 10 | > 10 | > 10 | > 10 | > 10
O=C1CN=C(c2ccccc2Cl)c2cc([N+](=O)[O-])ccc2N1 [CLONAZEPAM] | > 30 | > 10 | > 10 | > 30 | > 10
CC(NC(C)(C)C)C(=O)c1cccc(Cl)c1 (centres undefined) [BUPROPION] | > 30 | > 10 | > 10 | > 30 | > 10
Cc1nnc2n1-c1ccc(Cl)cc1C(c1ccccc1)=NC2 [ALPRAZOLAM] | > 30 | > 10 | > 10 | > 30 | > 10
OCCN(CCO)c1nc(N2CCCCC2)c2nc(N(CCO)CCO)nc(N3CCCCC3)c2n1 [DIPYRIDAMOLE] | 24.7 | > 30 | > 30 | > 30 | 2
Cc1cnc(Nc2ccc(OCCN3CCCC3)cc2)nc1Nc1cccc(S(=O)(=O)NC(C)(C)C)c1 [FEDRATINIB] | 6.83 | 7.4 | > 10 | > 30 | > 10
CCN(CC)CC(=O)Nc1c(C)cccc1C [LIDOCAINE] | > 30 | – | – | > 30 | –
CC(C)(N)Cc1ccccc1 [PHENTERMINE] | > 30 | > 10 | > 10 | > 30 | > 10
CN1C(=O)CN=C(c2ccccc2F)c2cc([N+](=O)[O-])ccc21 [FLUNITRAZEPAM] | > 30 | > 10 | > 10 | – | > 10
O=C(O[C@H]1C[N+]2(CCCOc3ccccc3)CCC1CC2)C(O)(c1cccs1)c1cccs1 [ACLIDINIUM BROMIDE] | > 30 | 2.5 | > 10 | > 30 | –
CC1Cc2ccccc2N1NC(=O)c1ccc(Cl)c(S(N)(=O)=O)c1 (centres undefined) [INDAPAMIDE] | > 30 | > 10 | > 10 | > 30 | > 10
CN1C2CCCC1CC(NC(=O)c1nn(C)c3ccccc13)C2 (centres undefined) [GRANISETRON] | > 30 | > 10 | > 10 | > 30 | > 10
Oc1cc(O)c2c(c1)O[C@H](c1ccc(O)c(O)c1)[C@@H](O)C2 [CIANIDANOL] | 22.2 | > 10 | > 10 | > 30 | > 10
SITOSTEROLS | > 30 | > 30 | > 30 | > 10 | > 30
CC(=O)OCC(=O)[C@@]1(O)CC[C@H]2[C@@H]3CCC4=CC(=O)CC[C@]4(C)[C@@]3(F)[C@@H](O)C[C@@]21C [FLUDROCORTISONE ACETATE] | > 30 | > 30 | > 30 | > 30 | > 30
CC(=O)[C@@]1(O)CC[C@H]2[C@@H]3C[C@H](C)C4=CC(=O)C=C[C@]4(C)[C@@]3(F)[C@@H](O)C[C@@]21C [FLUOROMETHOLONE] | > 10 | > 10 | > 10 | – | > 10
Nc1cc(N2CCCCC2)nc(N)[n+]1[O-] [MINOXIDIL] | > 30 | > 10 | > 10 | > 30 | > 10
NS(=O)(=O)c1ccc(N2CCCCS2(=O)=O)cc1 | > 30 | > 30 | – | > 30 | > 30
CCOC(=O)O[C@]1(C(=O)COC(=O)CC)CC[C@H]2[C@@H]3CCC4=CC(=O)C=C[C@]4(C)[C@H]3[C@@H](O)C[C@@]21C [PREDNICARBATE] | > 10 | > 10 | > 10 | – | > 10
CC(=O)Oc1cccc2c1C(=O)c1c(OC(C)=O)cc(C(=O)O)cc1C2=O [DIACEREIN] | 17 | > 30 | > 30 | > 30 | 12
CC1NCCOC1c1ccccc1 (centres undefined) [PHENMETRAZINE] | > 30 | > 10 | > 10 | > 30 | > 10
COc1ccc2c3c1O[C@H]1C(=O)CC[C@H]4[C@@H](C2)N(C)CC[C@]314 [HYDROCODONE] | > 30 | > 10 | > 10 | > 30 | > 10
CC1=C(CC(=O)O)c2cc(F)ccc2/C1=C\c1ccc([S+](C)[O-])cc1 (centres undefined) | > 30 | > 10 | > 10 | > 30 | > 10
